The text below walks through data of patent publication EP0114002B1, “Benzothiopyrano(4,3,2,-cd)indazoles, their pharmaceutical compositions and methods for their production” (WARNER-LAMBERT COMPANY, priority 1983, dated 1984).

The structures appear in SMILES notation.

One assay deals with L1210 cells. The assay can be described thus: L1210 murine leukemia cell growth inhibition in vitro. The assay is classed as cell-based. The conditions noted are these: Mus musculus, 72 h, Table 1, three days incubation, 50% inhibition of growth, read-out: L1210 in vitro ID50. On the procedure:
Another test protocol uses L1210 cells, a murine leukemia cell line, grown in RPMI 1640 supplemented with 5% fetal bovine serum and gentamicin ([…]). Drug dilutions are prepared in the appropriate solvent and 20 µl of each dilution are added to 24-well Linbro tissue culture plates, followed by the addition of 2.0 ml of cell suspension containing 3 x 10^4 cells per ml. Solvent and medium controls are included in each test. After incubation at 37°C forthree days in 5% C02, the contents of each well are removed and the cells counted in a ZBI Coulter counter. Percent growth are calculated relative to the controls and the levels of drug activity are expressed as ID50 in moles per liter.

Assay [1] concerns lymphocytic leukemia P388. The assay is described as follows: in vivo lymphocytic leukemia P388 test. The arrangement: species or system mice. The following applies: for P388 in vivo Cures: remark printed beside T/C × 100; for response vs control in vivo at 3.12 mg/kg: Dose 3.12 mg/kg intraperitoneally once daily for five days; for response vs control in vivo at 6.25 mg/kg: Dose 6.25 mg/kg intraperitoneally once daily for five days; for response vs control in vivo at 12.5 mg/kg: Dose 12.50 mg/kg intraperitoneally once daily for five days; for response vs control in vivo at 25 mg/kg: Dose 25.00 mg/kg intraperitoneally once daily for five days; for response vs control in vivo at 50 mg/kg: Dose 50.00 mg/kg intraperitoneally once daily for five days. On the procedure:
Another test protocol is the in vivo lymphocytic leukemia P388 test. The animals used are either male or female CD2F, mice. There are six or seven animals per test group. The tumor transplant is by intraperitoneal injection of dilute ascitic fluid containing cells of lymphocytic leukemia P388. The test compounds are administered intraperitoneally once daily for five consecutive days at various doses following tumor inoculation. The animals are weighed and survivors are recorded on a regular basis for 30 days. A compound is designated "toxic" if, at a given dose, all animals died prior to four days after the first injection of drug. A ratio of survival time for treated (T)/control (C) animals is calculated. A criterion for efficacy is a ratio T/C times 100 greater than or equal to 125. See Cancer Chemotherapy Reports, Part 3, 3; 1 (1972) for a comprehensive discussion of the protocol.

For assay [2], the system named is Aerobacter aerogenes 0126. The assay can be described thus: in vitro antibacterial/antifungal (ABF) agar-disk diffusion test. The assay is classed as cell-based. The following applies: Klebsiella aerogenes, read-out: ABF Zone Diameter (cont. in mg/ml) A. Aero-genes; for zone of inhibition at 100 µg/mL: 0.1 mg/ml; for zone of inhibition at 3000 µg/mL: 3 mg/ml. On the procedure:
(§1) Still another test protocol is the in vitro antibacterial/antifungal (ABF) test. Compounds are tested for antimicrobial activity in an agar-disk diffusion assay, a standard microbiological technique for testing antibiotics'. After incubation of each culture with a test compound, a zone of inhibition is determined. The zone diameter (mm) of active compounds ranges from a minimum of 13.5 mm to as high as 60 mm, with a greater diameter reflecting higher activity. For convenience, values are reported for two gram-negative bacteria (Aerobacter aerogenes 0126 and Escherichia coli 04863), two gram-positive bacteria (Bacillus subtilis 04555 and Streptococcus faecalis 05045 utilizing AM-09 medium), and one mycelial fungus (Penicillium avellaneum M2988).
A general note: A growth-free zone around the sample is the usual read-out of agar diffusion tests.

For assay [3], the system named is Streptococcus faecalis 05045. Described as above. The assay is classed as cell-based. The conditions noted are these: Enterococcus faecalis, AM-09 medium, read-out: ABF Zone Diameter (cont. in mg/ml) S. Fae-calis; for zone of inhibition at 1000 µg/mL: 1 mg/ml; for zone of inhibition at 500 µg/mL: 0.5 mg/ml; for zone of inhibition at 3000 µg/mL: 3 mg/ml. On the procedure:
as §1

Assay [4] concerns Penicillium avellaneum M2988. Described as above. The class given is cell-based. The conditions noted are these: Hamigera avellanea, read-out: ABF Zone Diameter (cont. in mg/ml) P. Avell-aneum; for zone of inhibition at 3000 µg/mL: 3 mg/ml. The procedure: as §1
Another assay relates to Bacillus subtilis 04555. Described as above. The class given is cell-based. The conditions noted are these: read-out: ABF Zone Diameter (cont. in mg/ml) B. Sub-tilis; for zone of inhibition at 500 µg/mL: 0.5 mg/ml; for zone of inhibition at 3000 µg/mL: 3 mg/ml. On the procedure:
as §1

The test system of the next assay is Escherichia coli 04863. The description is as above. The assay is classed as cell-based. The conditions noted are these: read-out: ABF Zone Diameter (cont. in mg/ml) E. Coli; for zone of inhibition at 3000 µg/mL: 3 mg/ml; for zone of inhibition at 500 µg/mL: 0.5 mg/ml. The procedure:
as §1

The test system of a further assay is HCT-8 cells. The assay is described as follows: in vitro proliferating human colon adenocarcinoma (HCA) cell screen. The assay is classed as cell-based. The conditions noted are these: Table 1, 60 to 65 hours with compound, 50% inhibition of growth, read-out: HCA—3 in vitro ID50. The procedure: One test protocol is the in vitro proliferating human colon adenocarcinoma (HCA) cell screen. In this test, HCT-8 cells (HCA cell line received from Yale University) are trypsinized using trypsin-EDTA. A single cell suspension is achieved by passing the cells through a 26 gauge needle with a 20 cc syringe. A cell suspension is prepared using RPMI 1640 + 10% FCS + 50) g/ml gentamicin sulfate with a cell concentration of approximately 30,000 cells/ml. The cell suspension is dispensed in Linbro 24-well plates; 1 ml/well. The plates are incubated for approximately 48 hours at 37°C in a 5% C02 atmosphere. At this time test compounds are added in the appropriate concentration. Five µl of the 200 µg/ml stock solution is added to each well in primary test. Ten µl of the appropirate dilution is added to each well for a titration test. The plates are re-incubated an additional 60 to 65 hours at 37°C in a 5% C02 atmosphere. The cells are lysed using a mix of cationic surfactant, glacial acetic acid, and sodium chloride. Two ml of the lysed cell suspension from each well is added to 8 ml of diluent. The number of nuclei is determined using a Coulter counter (ZBI model), and a percent growth for each drug concentration is calculated. From this, an ID50 molar concentration of a compound (that results in 50% inhibition of growth) is determined.

[5] abbreviates: Mus musculus, P388, ip, 120 h, read-out: P388 in vivo T/C × 100.

Turning to `CCN(CC)CCn1nc2c3c(c(NCCN)ccc31)Sc1ccccc1-2` [CH2CH2N(C2H5)2 / NHCH2CH2NH2, N-[2-[2-(Diethylamino)ethyl]-2H[1]benzothiopyrano[4,3,2-cd]indazol-5-yl]-1,2-ethanediamine], the IC50 in the assay on L1210 cells is 46 nM; in the assay with HCT-8 cells it was 97 nM. Moreover, the “P388 in vivo Cures” value in assay [1] (Dose 12.50 mg/kg) and in assay [1] (Dose 25.00 mg/kg) was “Cures” each time. Further, in assay [1] (setting [5]), the response vs control in vivo at 3.12 mg/kg was 178%. Besides, the response vs control in vivo at 6.25 mg/kg in assay [1] (setting [5]) turned out to be 215%. In assay [1] (setting [5]), the response vs control in vivo at 12.5 mg/kg worked out at 297%. Besides, the response vs control in vivo at 25 mg/kg in assay [1] (setting [5]) was found to be 148%. In addition, the zone of inhibition at 500 µg/mL was determined as 19 mm in assay [2] (0.5 mg/ml) and 20 mm in the assay on Bacillus subtilis 04555. Also, the zone of inhibition at 1000 µg/mL in assay [3] was found to be 15 mm. The zone of inhibition at 3000 µg/mL (in assay [4]; with Escherichia coli 04863) was 0 mm in each case.

As to `CCN(CC)CCn1nc2c3c(c(NCCNCCO)ccc31)Sc1ccccc1-2` [CH2CH2N(C2H5)2 / NHCH2CH2NHCH2CH2OH, 2-[[2-[[2-[2-(Diethylamino)ethyl]-2H[1]benzothiopyrano[4,3,2-cd]indazol-5-yl]amino]ethyl]amino]ethanol], the IC50 with L1210 cells worked out at 82 nM; with HCT-8 cells it was 200 nM. Further, in assay [1] (setting [5]), the response vs control in vivo at 3.12 mg/kg came to 209%. Moreover, the response vs control in vivo at 6.25 mg/kg in assay [1] (setting [5]) worked out at 219%. Also, the response vs control in vivo at 12.5 mg/kg in assay [1] (setting [5]) was 280%. Moreover, the zone of inhibition at 100 µg/mL in assay [2] was found to be 15 mm. The zone of inhibition at 500 µg/mL in assay [3] is 16 mm; with Bacillus subtilis 04555 it was 18 mm; in the assay on Escherichia coli 04863, 26 mm. Further, in assay [4], the zone of inhibition at 3000 µg/mL was 0 mm.

As to `CCN(CC)CCn1nc2c3c(c(NC(C)=O)ccc31)Sc1ccccc1-2` [CH2CH2N(C2H5)2 / NHCOCH3, N-[2-[2-(Diethylamino)ethyl]-2H-[1]benzothiopyrano[4,3,2-cd]indazol-5-yl]acetamide], the IC50 came out at 240 nM in the assay with L1210 cells and 600 nM with HCT-8 cells. Also, the response vs control in vivo at 12.5 mg/kg in assay [1] (setting [5]) worked out at 170%. For the same compound, the zone of inhibition at 3000 µg/mL in assay [2] was 16 mm; in assay [3] it was 15 mm; in assay [4], 0 mm; with Escherichia coli 04863, 16 mm. Besides, in the assay with Bacillus subtilis 04555, the zone of inhibition at 500 µg/mL is 16 mm.

As for `CCN(CC)CCn1nc2c3c(c(NCCN4CCOC4=O)ccc31)Sc1ccccc1-2` [CH2CH2N(C2H5)2 /], the IC50 in the assay with L1210 cells came to 950 nM; with HCT-8 cells it was 1800 nM. Besides, the response vs control in vivo at 47.45 mg/kg in assay [1] (Mus musculus, P388, ip, 120 h, Dose 47.45 mg/kg intraperitoneally once daily for five days, read-out: P388 in vivo T/C × 100) is 141%. The response vs control in vivo at 50 mg/kg in assay [1] (setting [5]) came out at 140%. Moreover, the response vs control in vivo at 63.28 mg/kg in assay [1] (Mus musculus, P388, ip, 120 h, Dose 63.28 mg/kg intraperitoneally once daily for five days, read-out: P388 in vivo T/C × 100) was found to be 165%. Also, in assay [1] (Mus musculus, P388, ip, 120 h, Dose 84.38 mg/kg intraperitoneally once daily for five days, read-out: P388 in vivo T/C × 100), the response vs control in vivo at 84.38 mg/kg came to 193%. For the same compound, in assay [1] (Mus musculus, P388, ip, 120 h, Dose 100.00 mg/kg intraperitoneally once daily for five days, read-out: P388 in vivo T/C × 100), the response vs control in vivo at 100 mg/kg was 218%. Besides, the zone of inhibition at 3000 µg/mL in assay [2] turned out to be 0 mm; in assay [4] it was 0 mm; with Bacillus subtilis 04555 it was 13 mm; in the assay on Escherichia coli 04863, 0 mm. Moreover, the zone of inhibition at 500 µg/mL in assay [3] was 14 mm.

Take `CN(C)CCn1nc2c3c(c(N)ccc31)Sc1ccccc1-2` [CH2CH2N(CH2)2 / NH2]: the values for the IC50 in the assay on L1210 cells and in the assay on HCT-8 cells were 80 nM and 280 nM, respectively. In addition, in assay [1] (setting [5]), the response vs control in vivo at 6.25 mg/kg is 126%. For the same compound, in assay [1] (setting [5]), the response vs control in vivo at 12.5 mg/kg came out at 160%. Also, the zone of inhibition at 100 µg/mL in assay [2] is 14 mm. For the same compound, in assay [3], the zone of inhibition at 1000 µg/mL was 20 mm. For the same compound, the zone of inhibition at 500 µg/mL in assay [4] (0.5 mg/ml) was found to be 17 mm; in the assay on Bacillus subtilis 04555, 15 mm; with Escherichia coli 04863, 16 mm.

Consider `CCN(CC)CCn1nc2c3c(c([N+](=O)[O-])ccc31)Sc1ccccc1-2` [CH2CH2N(CH2H5)2 / HO2, N,N-Diethyl-5-nitro-2H[1]benzothiopyrano[4,3,2-cd]-indazole-2-ethanamine], for which the IC50 in the assay with L1210 cells amounted to 56 nM; with HCT-8 cells it was 200 nM. The response vs control in vivo at 25 mg/kg in assay [1] (setting [5]) was determined as 138%. In assay [1] (setting [5]), the response vs control in vivo at 50 mg/kg came to 170%. Besides, the zone of inhibition at 3000 µg/mL stood at 0 mm in assay [2], 14 mm in assay [3], 15 mm in assay [4] and 14 mm with Bacillus subtilis 04555. In the assay with Escherichia coli 04863 (1 mg/ml), the zone of inhibition at 1000 µg/mL came to 14 mm.

`CN(C)CCn1nc2c3c(c([N+](=O)[O-])ccc31)Sc1ccccc1-2` [CH2CH2N(CH3)2 / NO2, N,N dimethyl-5-nitro-2H[1]benzothiopyrano[4,3,2-cd]indazole-2-ethanamine]: the IC50 in the assay on L1210 cells came out at 79 nM; in the assay on HCT-8 cells, 97 nM. Besides, the response vs control in vivo at 12.5 mg/kg in assay [1] (setting [5]) worked out at 158%. In addition, in assay [2] (1 mg/ml), the zone of inhibition at 1000 µg/mL came to 15 mm. The zone of inhibition at 3000 µg/mL (in assay [3]; with Bacillus subtilis 04555) was 15 mm throughout. The zone of inhibition at 100 µg/mL in assay [4] (0.1 mg/ml) worked out at 15 mm; with Escherichia coli 04863 (0.1 mg/ml) it was 14 mm.
